Molecular target: Serine/threonine-protein kinase pim-2 (Homo sapiens, UniProt Q9P1W9)
Assay: The phosphorylation of biotinylated-BAD (S112) peptide by full length recombinant Pim-1, Pim-2, or Pim-3 protein was detected with streptavidin:Allophycocyanin (APC) conjugate and a europium (Eu) labeled antibody directed against phosphorylated-BAD (S112). […] A reference compound was included on each assay plate in order to validate that plate; on

Sequence of Serine/threonine-protein kinase pim-2 (Q9P1W9 whole entry): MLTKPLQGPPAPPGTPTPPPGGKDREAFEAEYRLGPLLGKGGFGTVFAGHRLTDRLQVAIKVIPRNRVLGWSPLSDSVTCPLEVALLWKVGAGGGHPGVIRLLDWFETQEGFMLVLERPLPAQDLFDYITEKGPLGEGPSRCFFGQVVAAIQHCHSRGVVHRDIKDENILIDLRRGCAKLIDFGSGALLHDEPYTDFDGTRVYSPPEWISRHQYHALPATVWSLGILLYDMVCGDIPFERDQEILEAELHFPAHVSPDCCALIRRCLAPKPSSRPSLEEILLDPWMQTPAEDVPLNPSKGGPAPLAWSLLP

Compound `CC(C)(C)Nc1nnc(-c2ccc3[nH]cc(C4=CCOCC4)c3c2)o1` has an IC50 of 738 nM.
